pIC50: −log10 of the molar value.
Tests used:
Huh-7 [1] = experiment: Cytotoxicity against human HuH7 cells after 48 hrs by resazurin assay; format: functional, cell-based; details: Huh-7, 48 h
PANC-1 [2] = experiment: Cytotoxicity against human PANC1 cells after 48 hrs by resazurin assay; format: functional, cell-based; details: PANC-1, 48 h
CCRF-CEM = experiment: Cytotoxicity against human CCRF-CEM cells after 48 hrs by resazurin assay; format: functional, cell-based
TERT-RPE1 = experiment: Cytotoxicity against human RPE1 cells after 48 hrs by resazurin assay; format: cell-based; details: RPE-1, 48 h
[3] = Selectivity index, ratio of IC50 for human RPE1 cells to IC50 for human HuH7 cells; format: toxicity; details: RPE1 cells versus HuH7 cells, read-out: Ratio IC50
[4] = Selectivity index, ratio of IC50 for human RPE1 cells to IC50 for human PANC1 cells; format: toxicity; details: RPE1 cells versus PANC1 cells, read-out: Ratio IC50
[5] = Selectivity index, ratio of IC50 for human RPE1 cells to IC50 for human CCRF-CEM cells; format: toxicity; details: RPE1 cells versus CCRF-CEM cells, read-out: Ratio IC50
Huh-7 [6] = experiment: Induction of apoptosis in human HuH7 cells assessed as caspase-3/7 activation after 24 hrs by Caspase-Glo assay; format: functional, cell-based
PANC-1 [7] = experiment: Induction of apoptosis in human PANC1 cells assessed as caspase-3/7 activation after 24 hrs by Caspase-Glo assay; format: functional, cell-based
Huh-7 [8] = experiment: Upregulation of SLC26A3 gene expression in human HuH7 cells after 48 hrs by micro-array analysis relative to control; format: functional
Huh-7 [9] = experiment: Upregulation of UGT1A1 gene expression in human HuH7 cells after 48 hrs by micro-array analysis relative to control; format: functional
Huh-7 [10] = experiment: Upregulation of UGT2B15 gene expression in human HuH7 cells after 48 hrs by micro-array analysis relative to control; format: functional
Huh-7 [11] = experiment: Upregulation of UGT2B7 gene expression in human HuH7 cells after 48 hrs by micro-array analysis relative to control; format: functional
Huh-7 [12] = experiment: Upregulation of DNASE1 gene expression in human HuH7 cells after 48 hrs by micro-array analysis relative to control; format: functional
Huh-7 [13] = experiment: Upregulation of MUCDH1 gene expression in human HuH7 cells after 48 hrs by micro-array analysis relative to control; format: functional
Huh-7 [14] = experiment: Upregulation of UGT2B17 gene expression in human HuH7 cells after 48 hrs by micro-array analysis relative to control; format: functional
Huh-7 [15] = experiment: Downregulation of GIP3 gene expression in human HuH7 cells after 48 hrs by micro-array analysis relative to control; format: functional
Huh-7 [16] = experiment: Downregulation of TAGLN gene expression in human HuH7 cells after 48 hrs by micro-array analysis relative to control; format: functional
Huh-7 [17] = experiment: Downregulation of THBS1 gene expression in human HuH7 cells after 48 hrs by micro-array analysis relative to control; format: functional
Huh-7 [18] = experiment: Downregulation of IFI27 gene expression in human HuH7 cells after 48 hrs by micro-array analysis relative to control; format: functional
Huh-7 [19] = experiment: Downregulation of FSCN1 gene expression in human HuH7 cells after 48 hrs by micro-array analysis relative to control; format: functional
Huh-7 [20] = experiment: Downregulation of SOCS2 gene expression in human HuH7 cells after 48 hrs by micro-array analysis relative to control; format: functional

SMILES | pIC50 (Huh-7 [1]) | pIC50 (PANC-1 [2]) | pIC50 (CCRF-CEM) | pIC50 (TERT-RPE1) | selectivity ratio [3] | selectivity ratio [4] | selectivity ratio [5] | other results
CCOc1ccc(-n2nnc3n[nH]c(NC45CC6CC(CC(C6)C4)C5)c3c2=O)cc1 | 4.63 | 5.36 | 4.81 | < 4.00 | > 4.3 | > 22.7 | > 6.4 | –
C=CCNc1[nH]nc(N)c1C(=O)Nc1ccc(OCC)cc1 | 4.66 | 4.51 | 5.18 | < 4.00 | > 4.5 | > 3.2 | > 15.2 | –
CCOc1ccc(NC(=O)/C(C#N)=C(\NC23CC4CC(CC(C4)C2)C3)SC)cc1 | 5.00 | 4.63 | 4.76 | < 4.00 | > 10 | > 4.2 | > 5.7 | –
CCOc1ccc(NC(=O)/C(C#N)=C(\Nc2ccccc2)SC)cc1 | 4.60 | 4.31 | 4.69 | < 4.00 | > 4 | > 2 | > 4.9 | –
CCNc1[nH]nc(N)c1C(=O)Nc1ccc(OCC)cc1 | 4.57 | 4.83 | 4.85 | < 4.00 | > 3.7 | > 6.8 | > 7.2 | –
CCOc1ccc(NC(=O)c2c(N)n[nH]c2Nc2ccccc2)cc1 | 5.36 | 4.68 | 5.35 | 4.17 | 15.7 | 3.2 | 15.1 | –
CCOc1ccc(NC(=O)c2c(N)n[nH]c2NC23CC4CC(CC(C4)C2)C3)cc1 | 4.97 | 4.88 | 4.82 | 4.09 | 7.6 | 6.2 | 5.3 | –
C=CCNc1[nH]nc2nnn(-c3ccc(OCC)cc3)c(=O)c12 | 5.31 | 4.88 | 5.33 | < 4.00 | > 20.3 | > 7.5 | > 21.2 | Activity (Huh-7 [6]): Dose-dependent effect; Activity (PANC-1 [7]): Dose-dependent effect; fold change (FC) (Huh-7 [8]): >=3 - 6; fold change (FC) (Huh-7 [9]): >=3 - 6; fold change (FC) (Huh-7 [10]): >=3 - 6; fold change (FC) (Huh-7 [11]): >=3 - 6; fold change (FC) (Huh-7 [12]): >=3 - 6; fold change (FC) (Huh-7 [13]): >=3 - 6; fold change (FC) (Huh-7 [14]): >=3 - 6; fold change (FC) (Huh-7 [15]): >4; fold change (FC) (Huh-7 [16]): >4; fold change (FC) (Huh-7 [17]): >4; fold change (FC) (Huh-7 [18]): >4; fold change (FC) (Huh-7 [19]): >4; fold change (FC) (Huh-7 [20]): >4
C=CCN/C(SC)=C(/C#N)C(=O)Nc1ccc(OCC)cc1 | 5.05 | 4.66 | 4.73 | < 4.00 | > 11.3 | > 4.6 | > 5.4 | Activity (Huh-7 [6]): Dose-dependent effect; Activity (PANC-1 [7]): Dose-dependent effect
CCNc1[nH]nc2nnn(-c3ccc(OCC)cc3)c(=O)c12 | 4.84 | 4.79 | 4.82 | < 4.00 | > 6.9 | > 6.2 | > 6.6 | –
CCOc1ccc(-n2nnc3n[nH]c(Nc4ccccc4)c3c2=O)cc1 | 5.03 | 4.88 | 5.23 | < 4.00 | > 10.6 | > 7.6 | > 16.9 | –
CCN/C(SC)=C(/C#N)C(=O)Nc1ccc(OCC)cc1 | 4.78 | 4.38 | 5.00 | < 4.00 | > 6.1 | > 2.4 | > 10.1 | –
CCOc1ccc(NC(=O)c2c(N)n[nH]c2NC)cc1 | 4.66 | 4.51 | 5.10 | < 4.00 | > 4.6 | > 3.2 | > 12.7 | –
CCOc1ccc(NC(=O)CC#N)cc1 | 4.67 | 4.36 | 4.85 | < 4.00 | > 4.6 | > 2.3 | > 7.1 | –
CCOc1ccc(-n2nnc3n[nH]c(NC)c3c2=O)cc1 | 5.15 | 5.00 | 4.91 | < 4.00 | > 14.3 | > 10.1 | > 8.1 | Activity (Huh-7 [6]): Dose-dependent effect; Activity (PANC-1 [7]): Dose-dependent effect
COc1cccc2c1C(=O)c1c(O)c3c(c(O)c1C2=O)C[C@@](O)(C(=O)CO)C[C@@H]3O[C@H]1C[C@H](N)[C@H](O)[C@H](C)O1 [DOXORUBICIN] | 5.27 | – | – | 4.85 | – | – | – | –
CCOc1ccc(NC(=O)/C(C#N)=C(\NC)SC)cc1 | 5.24 | 4.58 | 5.00 | < 4.00 | > 17.3 | > 3.8 | > 10.1 | Activity (Huh-7 [6]): Dose-dependent effect; Activity (PANC-1 [7]): Dose-dependent effect
